Drawing on PubChem BioAssay (NCI), this text covers TGI and GI50 for 24 molecules.

Each structure is given as a SMILES string.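 The compound was tested at five concentrations on cells cultured in 96-well plates, with a 48-hour exposure period. GI50 marks 50% less growth. TGI denotes the concentration required for complete inhibition of growth.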 Bounds are passed on as bounds.

Common to all, as to assay: growth of human tumour cells (NCI), 48 h
The subject of assay [1] is K-562 leukemia.
Assay [2] concerns NCI-H460 lung.
In assay [3] the test system is OVCAR-4 ovarian.
The test system of assay [4] is RPMI-8226 leukemia.
Assay [5] has as its system SF-268 CNS.
Assay [6] has as its system SF-539 CNS.
The subject of assay [7] is UO-31 renal.
The test system of assay [8] is MOLT-4 leukemia.
The test system of assay [9] is OVCAR-5 ovarian.
Assay [10] has as its system U251 CNS.

With `O=c1c2ccccc2oc2ccccc12` (tested in a mixture with another compound), the TGI in assay [1] was greater than 100 µM; in [2], 25.9 µM; in assay [3], greater than 100 µM; in [4] it was greater than 100 µM; in assay [5] it was greater than 100 µM; in assay [6], greater than 100 µM. Further, the TGI in assay [7] is greater than 100 µM.
Take `O=C(O)c1c2c(cc3c(=O)c4ccccc4[nH]c13)CCCC2`: the TGI in [8], in assay [2], in assay [9], in [4], in assay [5] and in [6] was greater than 100 µM throughout. The TGI in assay [7] is greater than 100 µM.
In the case of `O=c1cc[nH]cc1-c1c[nH]ccc1=O`, the TGI in assay [1], in [8], in assay [2], in [4], in [6] and in assay [10] was greater than 100 µM in each case. This molecule registered a TGI in assay [7] greater than 100 µM.
With `CN1CCN=C1c1nnn(-c2ccc([N+](=O)[O-])cc2)c1-c1ccccc1`, the TGI in assay [1], in [8], in [2], in [3], in assay [9] and in [5] was greater than 100 µM each time. The TGI in assay [6], in [10] and in assay [7] was greater than 100 µM throughout.
Turning to `C1CSC[C@H]2COC[C@@H](CSCCS1)S2`, the TGI in assay [1], in assay [8], in assay [2], in assay [3], in [9] and in assay [5] was greater than 100 µM each time. For the same molecule, the TGI in assay [6], in [10] and in [7] was greater than 100 µM in each case.
Consider `CC(C)N(C(=O)C12C3C4C5(C(=O)O)C(C1C35I)C42C(=O)O)C(C)C` (stereo not drawn), for which the TGI in [1], in assay [8], in assay [2], in assay [3], in [9] and in assay [5] was greater than 100 µM each time. In addition, the TGI in [6], in assay [10] and in assay [7] was greater than 100 µM in each case.
Turning to `N#C/C(=C/N1CCN(C(=O)c2ccco2)C1=S)C(=O)Nc1ccc(Cl)cc1`, the GI50 in assay [1] was 16.1 µM; in [8], 17.8 µM; in assay [2], 19.9 µM; in assay [3], 25.2 µM; in assay [4], 10.5 µM; in assay [5], 17.8 µM. For the same molecule, the GI50 in [10] was 17.3 µM; in assay [7] it was 12 µM. The TGI was greater than 50 µM in assay [1]; greater than 50 µM in assay [8]; greater than 50 µM in assay [2]; greater than 50 µM in assay [3]; 32.2 µM in [4]; 41 µM in assay [5]. The TGI in assay [10] was greater than 50 µM; in assay [7], 26.6 µM.
Turning to `O=C1CC(c2cccc(Cl)c2)Oc2ccccc21` (stereo not drawn), the TGI in assay [1] was 6.4 µM; in assay [2] it was 42.1 µM; in assay [3], 94.1 µM; in [4] it was 9.83 µM; in assay [5] it was 50.6 µM; in assay [6] it was 36.3 µM. For the same molecule, the TGI in [10] was greater than 100 µM; in [7] it was 27.6 µM.
With `COc1cc(C)cc(C(=O)/C=C/c2ccccc2)c1O`, the TGI in assay [1] was greater than 100 µM; in [8], 69.8 µM; in [2], 44.7 µM; in assay [3], 45.9 µM; in [9], 34.9 µM; in [4], 63.3 µM. Further, the TGI in [5] is 88.1 µM; in [10], 35.6 µM; in [7], 32.4 µM.
As for `NC1=NC(SCc2ccccc2CCl)c2ncn(Cc3ccccc3CCl)c2N1` (stereo not drawn), the GI50 in assay [1] is 2.35 µM; in [8], 2.04 µM; in [2], 2.53 µM; in assay [3], 2.83 µM; in [9] it was 2.7 µM; in assay [5] it was 2.01 µM. The results for the GI50 in assay [6], in assay [10] and in assay [7] were 2.92 µM, 1.45 µM and 1.51 µM, respectively. Moreover, the TGI in assay [1] was 10.2 µM; in [8], 6.03 µM; in assay [2] it was 6.69 µM; in assay [3] it was 10.2 µM; in assay [9], 9.88 µM; in [5], 10.2 µM. The TGI in assay [6] amounted to 10.4 µM; in assay [10] it was 2.82 µM; in assay [7], 3.08 µM.
As for `C=CC1C(CC2OC(CO)C(O)C(O)C2O)OC=C2C(=O)OCCC21O` (stereo not drawn), the GI50 in assay [1] was 6.6 µM; in assay [8], 3.78 µM; in assay [2], 28.4 µM; in assay [3] it was 5.82 µM; in [9], 14.4 µM; in assay [4], 2.32 µM. Moreover, the figures for the GI50 in [5], in [10] and in assay [7] were 24.3 µM, 13.2 µM and 16.4 µM, respectively. In addition, the TGI is greater than 100 µM in [1]; 30.5 µM in [8]; greater than 100 µM in assay [2]; 30.2 µM in assay [3]; 44.5 µM in [9]; 8.43 µM in assay [4]. For the same molecule, the results for the TGI in assay [5], in assay [10] and in [7] were 89 µM, 28 µM and greater than 100 µM, respectively.
In the case of `O=C1OC(=O)C23CSCC12C1C=CC3O1` (stereo not drawn), the TGI in [1], in [8], in [2], in [9], in assay [4] and in assay [5] was greater than 100 µM throughout. The TGI in assay [6], in assay [10] and in assay [7] was greater than 100 µM in each case.
On to `CN(C)CCN1C(=O)c2cccc3c(/C=C/CN4C(=O)c5cccc6cccc(c56)C4=O)ccc(c23)C1=O`, for which the GI50 was greater than 100 µM in [8]; greater than 100 µM in assay [2]; greater than 100 µM in [3]; 35.5 µM in assay [9]; greater than 100 µM in [4]; 51.5 µM in assay [5]. Also, the figures for the GI50 in assay [6], in assay [10] and in assay [7] were 6.33 µM, 46.5 µM and 17.4 µM, respectively. Further, the TGI in assay [8], in assay [2], in assay [3], in [9], in assay [4] and in assay [5] was greater than 100 µM throughout. The TGI in assay [6] was 19.5 µM; in assay [10], greater than 100 µM; in assay [7], 48.2 µM.
As to `CC(=O)OCC1OC(n2c(=O)[nH]c(=O)c3n[nH]nc32)C(OC(C)=O)C(OC(C)=O)C1OC(C)=O` (stereo not drawn), the TGI in [1], in assay [8], in [2], in assay [3], in [9] and in assay [4] was greater than 100 µM throughout. Moreover, the TGI in assay [5], in [10] and in assay [7] was greater than 100 µM in each case.
On to `COc1cc(OC)c2c(=O)cc(-c3ccccc3OCc3ccccc3)oc2c1OC`, for which the GI50 is greater than 100 µM in [1]; 5.42 µM in [2]; 6.32 µM in assay [3]; 18 µM in [9]; 2.83 µM in assay [4]; 18.7 µM in assay [5]. Further, the GI50 in [6] is 12.4 µM; in [10], 9.59 µM; in assay [7], greater than 100 µM. The TGI in assay [1] was greater than 100 µM; in assay [2] it was greater than 100 µM; in assay [3], greater than 100 µM; in assay [9] it was 84.3 µM; in assay [4], greater than 100 µM; in assay [5], 73.7 µM. Besides, the TGI in assay [6] was 40 µM; in assay [10], greater than 100 µM; in assay [7] it was greater than 100 µM.
Take `COc1ccc(Br)c(CN2CCc3ccccc32)c1OS(=O)(=O)c1ccc(C)cc1`: the TGI in assay [1] was greater than 100 µM; in assay [8] it was greater than 100 µM; in assay [9], greater than 100 µM; in assay [4] it was greater than 100 µM; in [5], greater than 100 µM; in assay [6], 57.8 µM. The molecule further yielded a TGI in assay [7] greater than 100 µM.
For `CCCCCCCC(=O)[O-].CCCCCCCC(=O)[O-].N.N.N.N.[Co+3].[O-][Cl+3]([O-])([O-])[O-]`, the GI50 in assay [1] is greater than 100 µM; in assay [8] it was greater than 100 µM; in assay [9], greater than 100 µM; in assay [4], greater than 100 µM; in assay [5], 19.1 µM; in assay [6], greater than 100 µM. In addition, the GI50 in assay [7] is greater than 100 µM. Also, the TGI in [1], in assay [8], in assay [9], in assay [4], in assay [5] and in assay [6] was greater than 100 µM throughout. Also, the TGI in [7] was greater than 100 µM.
For `COc1cc(Cc2c(C)cc(OC)c3[nH]c4ccccc4c23)cc2c1[nH]c1ccccc12`, the GI50 in assay [1] was 7.31 µM; in assay [8], 5.69 µM; in assay [2] it was 5.13 µM; in [5], 6.97 µM; in [6], 4.61 µM; in [10] it was 4.96 µM. In addition, the GI50 in [7] is 6.05 µM. In addition, the TGI in assay [1] was greater than 25 µM; in [8], greater than 25 µM; in assay [2], 12.1 µM; in assay [9], 12.5 µM; in assay [4], greater than 25 µM; in assay [5] it was 24.9 µM. Besides, the TGI in assay [6] is 9.23 µM; in assay [10] it was 9.84 µM; in assay [7], 18.6 µM.
With `O=C1CS/C(=N/S(=O)(=O)c2ccc(N3N=C4c5ccccc5CC4C3c3cccs3)cc2)N1C(=O)c1ccccc1` (stereo not drawn), the GI50 in assay [8] was 22.2 µM; in assay [2], greater than 100 µM; in assay [3], greater than 100 µM; in assay [9], 32.2 µM; in assay [4], 34 µM; in assay [5], greater than 100 µM. Besides, the values for the GI50 in assay [6], in assay [10] and in [7] were 44.6 µM, 36.3 µM and greater than 100 µM, respectively. For the same molecule, the TGI in assay [8] was 53.4 µM; in [2], greater than 100 µM; in assay [3], greater than 100 µM; in assay [9] it was greater than 100 µM; in [4], greater than 100 µM; in [5] it was greater than 100 µM. Also, the TGI in assay [6], in [10] and in assay [7] was greater than 100 µM throughout.
`CC(C)=Cc1cc(CCC/C(C)=C/Cc2c(O)cc(C)c(C(=O)O)c2O)co1`: the TGI in assay [1], in assay [2], in assay [3], in [9], in assay [4] and in [5] was greater than 100 µM throughout. Further, the TGI in [6], in assay [10] and in [7] was greater than 100 µM throughout.
In the case of `COc1ccc(NC(=O)CC(=O)N/N=C(\C)c2cc3ccccc3oc2=O)cc1`, the TGI in assay [1], in assay [8], in assay [2], in [4], in assay [6] and in assay [10] was greater than 100 µM throughout. For the same molecule, the TGI in [7] was greater than 100 µM.
Turning to `CCOC(=O)[C@@]12C(C)=CC(=O)O[C@]1(C)C1C(=O)NC(=O)C12` (stereo partly drawn), the TGI in [1], in [8], in assay [2], in [3], in [4] and in [6] was greater than 100 µM each time. For the same molecule, the TGI in assay [10] and in [7] was greater than 100 µM each time.
On to `CC12OC(C(=O)C13CC3)C1C(=O)c3c(O)ccc(O)c3C(=O)C12` (stereo not drawn), for which the GI50 was 13.8 µM in assay [1]; 2.35 µM in assay [8]; 31.5 µM in [2]; 19.4 µM in [9]; 15.1 µM in assay [5]; 19.4 µM in assay [6]. In addition, the GI50 is 14.7 µM in assay [10] and 22.8 µM in assay [7]. For the same molecule, the TGI was 34.6 µM in assay [1]; 10.2 µM in assay [8]; greater than 100 µM in [2]; 43.8 µM in assay [9]; 45.8 µM in [5]; 49.9 µM in [6]. In addition, the TGI in assay [10] amounted to 31.1 µM; in assay [7], 55.6 µM.
Regarding `COc1ccc2c(c1O)[C@@]13CCCC=C1[C@@H](C2)[N+](C)(C)CC3`, the TGI in assay [1], in assay [2], in assay [3], in assay [9], in [5] and in [10] was greater than 100 µM throughout. The molecule further displayed a TGI in assay [7] greater than 100 µM.
